Target: Mitogen-activated protein kinase kinase kinase kinase 1 (Homo sapiens, UniProt Q92918)
Assay: Inhibition of N-terminal GST-tagged full-length human HPK1 expressed in baculovirus infected Sf21 cells using MBP as substrate preincubated for 15 mins followed by substrate addition and measured after 120 mins in presence of ATP by ADP-glo assay

Chain of Mitogen-activated protein kinase kinase kinase kinase 1 (Q92918 whole entry): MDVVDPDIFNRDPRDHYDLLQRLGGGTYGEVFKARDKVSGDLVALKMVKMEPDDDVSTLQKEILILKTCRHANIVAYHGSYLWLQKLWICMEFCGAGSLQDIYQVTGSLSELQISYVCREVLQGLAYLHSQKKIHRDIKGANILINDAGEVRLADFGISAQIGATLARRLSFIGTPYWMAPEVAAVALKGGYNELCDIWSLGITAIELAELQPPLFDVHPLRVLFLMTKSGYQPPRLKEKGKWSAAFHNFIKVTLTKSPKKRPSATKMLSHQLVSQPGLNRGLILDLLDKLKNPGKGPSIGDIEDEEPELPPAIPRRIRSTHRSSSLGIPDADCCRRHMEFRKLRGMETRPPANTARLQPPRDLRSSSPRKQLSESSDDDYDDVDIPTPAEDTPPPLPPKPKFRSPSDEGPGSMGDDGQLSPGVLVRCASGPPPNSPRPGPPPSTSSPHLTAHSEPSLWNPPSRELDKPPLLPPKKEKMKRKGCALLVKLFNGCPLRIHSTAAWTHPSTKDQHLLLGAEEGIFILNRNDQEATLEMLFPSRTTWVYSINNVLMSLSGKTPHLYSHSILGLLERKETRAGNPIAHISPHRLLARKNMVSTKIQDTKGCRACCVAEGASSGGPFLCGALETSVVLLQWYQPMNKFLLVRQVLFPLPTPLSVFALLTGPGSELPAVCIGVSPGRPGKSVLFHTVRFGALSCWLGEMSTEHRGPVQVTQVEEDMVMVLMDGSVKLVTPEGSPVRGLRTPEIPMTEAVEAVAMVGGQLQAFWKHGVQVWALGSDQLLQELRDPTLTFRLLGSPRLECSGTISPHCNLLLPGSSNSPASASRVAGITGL

IC50, < 100 nM:
CN1CCN(c2ccc(-c3cc(C(N)=O)c4ncnc(N[C@H]5CCCNC5)c4n3)cn2)CC1
COCCOc1ccc(-c2cc(C(N)=O)c3ncnc(N[C@H]4CCCNC4)c3n2)c(C#N)c1
NC(=O)c1cc(-c2ccc(F)cc2)nc2c(N[C@H]3CCCNC3)ncnc12
NC(=O)c1cc(-c2ccc(C3(O)CC3)cc2)nc2c(N[C@H]3CCCNC3)ncnc12
COc1ccccc1-c1cc(C(N)=O)c2ncnc(N[C@H]3CCCNC3)c2n1
CS(=O)(=O)Cc1ccc(-c2cc(C(N)=O)c3ncnc(N[C@H]4CCCNC4)c3n2)cc1

Source: ChEMBL document CHEMBL5370691, “Novel Pyrido[3,2-d]pyrimidines as HPK1 Inhibitors for Treating Cancer and Inflammatory and Autoimmune Diseases” (ACS Med Chem Lett, 2023)
